Assay [1] deals with frataxin deficient fibroblasts (GM03665) from Friedreich's ataxia patient. The experiment in a line: Frataxin Deficient Fibroblast Viability Assay (BSO Assay). Type of assay: cell-based. The settings on record: for EC50: Homo sapiens, Fibroblast, FA patient fibroblasts pretreated with compound, BSO 10 mM, MTT after 48 hrs. As to the method:
Example 12: Frataxin Deficient Fibroblast Viability Assay (the “BSO Assay”)
This Example was used to evaluate the various new compositions for their potential efficacy in the treatment of Friedreich's Ataxia (FA or FRDA)—substantially as described in the above cited Reference (Matthias et al.).
The stock solutions of the test articles (and control compounds) were prepared in dimethyl sulfoxide (DMSO at 10 mM), Working stock solutions (2 times concentrated) were prepared on the day of the experiment in respective cell culture medium to be used for assay (detailed medium description below). A listing of compounds used as test articles in this Example 12 are found in Table 1, below.
A patient derived frataxin deficient fibroblast cell line was obtained from Coriell Institute. More specifically, the following cell lines/DNA samples were obtained from the NIGMS Human Genetic Cell Repository at the Coriell Institute for Medical Research: GM03665. To evaluate importance of various growth conditions on cell susceptibility to BSO toxicity cells were grown on:
MEM (Sigma-Aldrich) 15% Fetal Bovine Serum (FBS) without growth factors;
MEM (Sigma-Aldrich) 15% FBS with growth factors (Catalogue number 100-18B, Recombinant Human FGF-basic (154 a.a.) and catalogue number AF-100-15, Animal-Free Recombinant Human EGF from Peprotech);
MEM199/MEM EBS (Bioconcept Ltd.) 10% FBS, insulin 10 μg/ml, L-glutamine 2 mM with growth factors (Catalogue number 100-18B, Recombinant Human FGF-basic (154 a.a.) and catalogue number AF-100-15, Animal-Free Recombinant Human EGF from Peprotech).
To conduct an experiment, fibroblast cells (from all growth conditions) were seeded (100 μL (cells 3×10^3/well) on 96-well plates in MEM199/MEM EBS medium 10% FBS, insulin 10 μg/mL, L-glutamine 2 mM with growth factors and allowed to grow on plate for 24 hrs. After 24 hrs., media was removed and then test compounds of interest were added (100 μL, 2 times concentrated stock) to 96-well plates (end DM80 concentration not exceeding 0.5%) and incubated for 24 hours. Then L-buthionine-sulfoximine (BSO, from Acros Organics, Cat. No. 235520010) was added (100 μL, 2 times concentrated stock) at end concentrations ranging from 1 to 10 mM. Both test compounds and BSO were dissolved in MEM199/MEM EBS medium 10% FBS, insulin 10 μg/mL, L-glutamine 2 mM with growth factors. Cell viability was monitored and either after 24- or 48-hours cell viability was assayed by MTT (Thiazolyl blue tetrazolium bromide) assay. For the MTT assay, media was removed and 100 μL of MTT 1 mg/mL was added, incubated for 2 hours at +37° C., then medium was removed and 100 μL of isopropanol added to dissolve sediment. Absorption was measured at 570 (OD570) and 650 (QD650) nm wavelengths. Control cells (vehicle instead of BSO and compound) and vehicle control (with BSO, but vehicle instead of test compound) were treated in the same manner as ceils with BSO and compound. All cell media contained penicillin and streptomycin 100 U/mL each.
Absorption readouts were processed as follows: ValueΔ=ValueOD570−ValueOD650 and the obtained values were used to calculate cell viability as % of control cell (i.e., no BSO, no compound, just vehicle) viability.
Except as otherwise indicated in Table 1, all samples were run in at least 3 replicates for test compounds and at least 8 replicates for controls (i.e., both control (no BSO, no compound) and vehicle control (i.e., with BSO, no compound). Exact N per data points are indicated in the figures/table legends. Results for the compounds (test articles and controls) tested are listed in Table 1, below.
This is a cell-based assay measuring cytotoxicity which results from oxidative stress subsequent to depletion of endogenous glutathione defense mechanisms. The cells were primary Friedreich Ataxia (FA) patient fibroblasts which were incubated for 48 hrs. in BSO, an inhibitor of gamma glutamyl synthetase, an enzyme required for glutathione production. […]

The subject of assay [2] is GM03665 cells (fibroblasts from a subject with Friedreich's ataxia). The experiment in a line: RSL-3 Toxicity Assay (RSL-3 Assay). It is filed as cell-based, human. The settings on record: Homo sapiens, Fibroblast; GM03665 cells, RSL-3 2 μM, 24 hours, MTT. From the text:
Example 14: RSL-3 Toxicity Assay (RSL-3 Assay)
This assay has been adapted from: Hinman, A., Holst, C. R., Latham, J. C., Bruegger, J. J., Ulas, G., McCusker, K. P., Amagata, A., Davis, D., Hoff, K. G., Kahn-Kirby, A. H., Kim, V., Kosaka, Y., Lee, E., Malone, S. A., Mei, J. J., Richards, S. J., Rivera, V., Miller, G., Trimmer, J. K., Shrader, W. D., “Vitamin E hydroquinone is an endogenous regulator of ferroptosis via redox control of 15-lipoxygenase”, (2018) PLoS ONE 13(8): e0201369.
In brief, GM03665 cells (Coriell Institute) were seeded in 96-well plates (Sarstedt) in DMEM cell culture media containing 10% Fetal Bovine serum and 1% Penicillin-Streptomycin (Pen-Strep) antibiotic mix at the amount of 2×10^4/mL (100 μL or 2×10^3 cells per well). Cells were left to rest overnight at 37° C. in a humidified atmosphere with 5% CO2 to allow attachment of the cells to the culture plate. Test compounds were prepared as DMSO stocks (10 mM) and were serially diluted in cell culture media to obtain 2× working solutions. Cell media was discarded and replaced by 50 μL of test compound solutions or cell media with vehicle for control wells. Within 15 minutes, 2× working solution (4 μM) of 1S,3R-RSL-3 (CAS #1219810-16-8, Sigma-Aldrich) (diluted from 5 mM DMSO stock in cell culture media) was added. Final reaction volume was 100 μL and final DMSO concentration in reaction was kept below 0.2% (v/v) and equal in all wells. Final RSL-3 concentration was 2 μM and test compound final concentrations in reaction were up to 1000 nM. After 24 hours of incubation cell viability was assessed by MTT test. MTT (Sigma-Aldrich) solution 1 mg/mL in IX PBS (pH=7.4) was prepared 1 hour before the assay and filtered through Filtropur S 0.2 filters (Sarstedt). Cell media with test compounds was discarded and 100 μL of MTT solution was added to cells. The plates were incubated for 2 hours at +37° C. Thereafter, the MTT solution was removed and 100 μL of isopropanol was added to dissolve sediment. Absorption at 570 and 650 nm was measured using Hidex Sense microplate reader.
Compounds A and B and idebenone were not examined in this assay. The data presented in Table 1 indicates omaveloxolone was not active in this assay but that vatiquinone was active.
Discussion—Both BSO and RSL-3 are frequently utilized to induce the regulated cell death pathway known as ferroptosis. Ferroptosis is thought to require the joint activity of iron catalyzed oxidative stress and lipid peroxidation and has been described in cell and animal models of multiple neurodegenerative diseases, including Friedreich's Ataxia, Huntington Disease, Parkinson Disease and Alzheimer's Disease. […] Of note, the results for Compounds C-I and K were favorable with respect to inhibition of ferroptotic cell death when either BSO or RSL3 were used as initiating stimulus, differentiating these compounds from omaveloxolone and idebenone.

A further assay deals with HepG2 cells. The experiment in a line: Rotenone Oxygraph Assay (high-resolution respirometry of intact HepG2 cells). Type of assay: cell-based, human. The conditions noted are these: Homo sapiens; intact HepG2 cells, rotenone 1 μM, compound 10 μM, increase in respiration rate. How it is done:
Example 15: Rotenone Oxygraph Assay (High-Resolution Respirometry of Intact HepG2 Cells)
The Oxygraph-2k (O2k, OROBOROS INSTRUMENTS, Austria) was used for measurements of respiration of intact cells. The respirometry was performed in Dulbecco's Modified Eagle Medium (DMEM) high glucose without supplements. All experiments were performed at 37° C.
HepG2 cells (ATCC collection code HB-8065™) were cultured in 10 cm^2 culture dishes in DMEM high glucose medium supplemented with 10% fetal bovine serum (FBS) and 100 units/mL penicillin and 100 μg/mL streptomycin until approximately 90% confluence was reached. Immediately prior to performing the respirometric assay, the cells were washed with media without FBS, trypsinized and resuspended in DMEM high glucose without FBS.
The final concentration of intact cells in the O2k-chamber was 0.5-10^6/mL. After stabilization of respiration, the Complex I inhibitor, rotenone, at 1 μM final concentration was added to inhibit electron flux via Complex I. Then, compound to be tested was added at 10 μM final concentration, and the change in respiration rate of intact cells was monitored. […]

These results are taken from patent US12037350B2, “Compositions and methods for the prevention and/or treatment of mitochondrial disease, including Friedreich's ataxia” (Stealth BioTherapeutics Inc., priority 2020, dated 2024).

By EC50 is commonly meant the concentration at which the effect is half-maximal.

Turning to `CC1=C(C)C(=O)C(C/C=C(\C)CC/C=C(\C)CCC=C(F)F)=C(C)C1=O` [Compound A, 2-((2E,6E)-11,11-difluoro-3,7-dimethylundeca-2,6,10-trien-1-yl)-3,5,6-trimethylcyclohexa-2,5-diene-1,4-dione], in assay [1] (BSO Assay, text statement), the “protection against BSO induced cell death (in words)” value is recorded as “best of the test compounds”. Moreover, in assay [1], the EC50 came to 67.1 nM.
Take `CCCCCCCCCCC1=C(C)C(=O)C(OC)=C(OC)C1=O` [Compound D, reference compound]: the EC50 in assay [1] was determined as 159 nM; in assay [2], 70 nM. Moreover, the activation at 10 µM in the assay with HepG2 cells is 30%.
Taken in the same sequence, the figures for `COC1=C(OC)C(=O)C(CCCCCC(F)(F)F)=C(C)C1=O` [Compound E, 2,3-dimethoxy-5-methyl-6-(6,6,6-trifluorohexyl)cyclohexa-2,5-diene-1,4-dione] were 359 nM, 135 nM and 49%.
The like results for `COC1=C(OC)C(=O)C(CCCCCC(F)F)=C(C)C1=O` [Compound F, 2-(6,6-difluorohexyl)-5,6-dimethoxy-3-methylcyclohexa-2,5-diene-1,4-dione] were, in that order, 689 nM, 146 nM and 44.7%.
Regarding `COC1=C(OC)C(=O)C(CCCCCCF)=C(C)C1=O` [Compound G, 2-(6-fluorohexyl)-5,6-dimethoxy-3-methylcyclohexa-2,5-diene-1,4-dione], the figures for the concentration for a half-maximal effect (EC50) in assay [1] and in assay [2] were 555 nM and 205 nM, respectively. This molecule showed an activation at 10 µM in the assay with HepG2 cells of 42.7%.
Taken in the same sequence, the figures for `CCCCCCCC1=C(C)C(=O)C(OC)=C(OC)C1=O` [Compound H, 2-heptyl-5,6-dimethoxy-3-methylcyclohexa-2,5-diene-1,4-dione] were 241 nM, 56 nM and 41.8%.
The like results for `COC1=C(OC)C(=O)C(CCCC(F)(F)F)=C(C)C1=O` [Compound I, 2,3-dimethoxy-5-methyl-6-(4,4,4-trifluorobutyl)cyclohexa-2,5-diene-1,4-dione] were, in that order, 772 nM, 479 nM and 37.8%.
`COC1=C(OC)C(=O)C(CCC[Si](C)(C)C)=C(C)C1=O` [Compound K, 2,3-dimethoxy-5-methyl-6-(3-(trimethylsilyl)propyl)cyclohexa-2,5-diene-1,4-dione] gave a concentration giving a half-maximal response (EC50) in assay [2] of 75 nM. The molecule also displayed an activation at 10 µM with HepG2 cells of 41.4%.
